Source: patent US20220395472A1 (Dermavant Sciences GmbH, priority 2021, published 2022)

System: adults with plaque psoriasis
Experiment: Long-term open-label extension study (PSOARING 3): Physician Global Assessment (PGA), treatment episodes, treatment success, remittive effect
Type: in vivo, human
Description: This extension study consisted of up to 40 weeks of treatment and a 4 week, safety follow up period.
At the completion of the Week 12 visit of the DB, pivotal Phase 3 study, eligibility of the subjects opting to enroll in this extension study was confirmed. Study visits during the treatment period for all subjects occurred every 4 weeks (±3 days). A phone call was performed at Week 2 (Day 15). Unscheduled visits may have occurred, as needed. Subjects who withdrew from this study before Week 40 returned to the study center for an Early Termination visit. The total duration of this extension study participation was 44 weeks. Subjects in this study were treated as follows based on their PGA score from the Week 12 visit in the DB, pivotal Phase 3 study (Study DMVT 505 3001 or Study DMVT 505 3002).
The PGA was used to assess the primary efficacy endpoint in this study. The PGA is a clinical tool for assessing the current state/severity of a subject's psoriasis at a given time point. It is a static, 5 point, morphological assessment of overall disease severity, as determined by the Investigator, using the clinical characteristics of erythema, scaling, and plaque thickness/elevation as guidelines; higher PGA scores represent more severe disease (0=clear, 1=almost clear, 2=mild, 3=moderate, and 4=severe). The BSA affected was not considered in scoring of the PGA. Variations of the PGA are frequently used in clinical studies because it is a simple assessment, similar to those used in clinical practice. The PGA was performed first, prior to the % BSA, PASI, and LTS assessments.
Time to event parameters, such as the time from treatment success to subsequent worsening (PGA≥2) or duration of treatment episode, were summarized by the Kaplan Meier product limit method using OC.

[1] = Baseline PGA = 2, Tapinarof (Pivotal) group
[2] = Baseline PGA = 2, Vehicle (Pivotal) group
[3] = Baseline PGA = 3, Tapinarof (Pivotal) group

SMILES: CC(C)c1c(O)cc(/C=C/c2ccccc2)cc1O [Tapinarof, 3,5-Dihydroxy-4-isopropyl-trans-stilbene]
- Duration of 1st Success, Mean (SD) [1]: 81.3 (71.03) days
- Duration of 1st Success, Median [1]: 57.0 days
- Duration of 2nd Episode, Mean (SD) [1]: 78.2 (54.89) days
- Duration of 2nd Episode, Median [1]: 84.5 days
- Duration of 2nd Success, Mean (SD) [1]: 27.3 (30.06) days
- Duration of 2nd Success, Median [1]: 25.0 days
- Duration of 3rd Episode, Mean (SD) [1]: 1.0 (NE) days
- Duration of 3rd Episode, Median [1]: 1.0 days
- Duration of Last Episode, Mean (SD) [1]: 175.4 (98.91) days
- Duration of Last Episode, Median [1]: 197.0 days
- Duration of Last Success, Mean (SD) [1]: 76.1 (72.82) days
- Duration of Last Success, Median [1]: 56.0 days
- Total Duration of Treatment Episodes, Mean (SD) [1]: 190.1 (90.58) days
- Total Duration of Treatment Episodes, Median [1]: 223.0 days
- Total Duration of Treatment Success, Mean (SD) [1]: 84.6 (71.17) days
- Total Duration of Treatment Success, Median [1]: 78.0 days
- Average Duration of Episodes, Mean (SD) [2]: 169.8 (89.68) days
- Average Duration of Episodes, Median [2]: 194.0 days
- Average Duration of Treatment Success, Mean (SD) [2]: 94.6 (65.57) days
- Average Duration of Treatment Success, Median [2]: 87.0 days
- Duration of 1st Episode, Mean (SD) [2]: 173.2 (86.28) days
- Duration of 1st Episode, Median [2]: 194.0 days
- Duration of 1st Success, Mean (SD) [2]: 110.8 (72.69) days
- Duration of 1st Success, Median [2]: 115.5 days
- Duration of 2nd Episode, Mean (SD) [2]: 46.0 (42.39) days
- Duration of 2nd Episode, Median [2]: 27.0 days
- Duration of 2nd Success, Mean (SD) [2]: 34.7 (51.14) days
- Duration of 2nd Success, Median [2]: 27.5 days
- Duration of 3rd Episode, Mean (SD) [2]: 42.5 (19.09) days
- Duration of 3rd Episode, Median [2]: 42.5 days
- Duration of 3rd Success, Mean (SD) [2]: 29.0 (NE) days
- Duration of 3rd Success, Median [2]: 29.0 days
- Duration of Last Episode, Mean (SD) [2]: 166.2 (95.09) days
- Duration of Last Episode, Median [2]: 194.0 days
- Duration of Last Success, Mean (SD) [2]: 79.8 (77.74) days
- Duration of Last Success, Median [2]: 44.5 days
- Total Duration of Treatment Episodes, Mean (SD) [2]: 184.6 (78.19) days
- Total Duration of Treatment Episodes, Median [2]: 196.5 days
- Total Duration of Treatment Success, Mean (SD) [2]: 127.9 (73.01) days
- Total Duration of Treatment Success, Median [2]: 136.5 days
- Average Duration of Episodes, Mean (SD) (Baseline PGA = 3, Overall): 178.0 (94.87) days
- Average Duration of Episodes, Median (Baseline PGA = 3, Overall): 197.0 days
- Average Duration of Treatment Success, Mean (SD) (Baseline PGA = 3, Overall): 66.4 (56.88) days
- Average Duration of Treatment Success, Median (Baseline PGA = 3, Overall): 51.0 days
- Duration of 1st Episode, Median (Baseline PGA = 3, Overall): 197.0 days
- Duration of 1st Success, Mean (SD) (Baseline PGA = 3, Overall): 68.8 (57.40) days
- Duration of 1st Success, Median (Baseline PGA = 3, Overall): 56.0 days
- Duration of 2nd Episode, Mean (SD) (Baseline PGA = 3, Overall): 58.8 (46.15) days
- Duration of 2nd Episode, Median (Baseline PGA = 3, Overall): 55.0 days
- Duration of 2nd Success, Mean (SD) (Baseline PGA = 3, Overall): 31.5 (19.15) days
- Duration of 2nd Success, Median (Baseline PGA = 3, Overall): 28.5 days
- Duration of 3rd Episode, Mean (SD) (Baseline PGA = 3, Overall): 55.2 (27.44) days
- Duration of 3rd Episode, Median (Baseline PGA = 3, Overall): 57.0 days
- Duration of 3rd Success, Mean (SD) (Baseline PGA = 3, Overall): 28.0 (NE) days
- Duration of 3rd Success, Median (Baseline PGA = 3, Overall): 28.0 days
- Duration of 4th Episode, Mean (SD) (Baseline PGA = 3, Overall): 1.0 (NE) days
- Duration of 4th Episode, Median (Baseline PGA = 3, Overall): 1.0 days
- Duration of Last Episode, Mean (SD) (Baseline PGA = 3, Overall): 175.4 (98.29) days
- Duration of Last Episode, Median (Baseline PGA = 3, Overall): 197.0 days
- Duration of Last Success, Mean (SD) (Baseline PGA = 3, Overall): 64.1 (58.23) days
- Duration of Last Success, Median (Baseline PGA = 3, Overall): 51.0 days
- Total Duration of Treatment Episodes, Mean (SD) (Baseline PGA = 3, Overall): 187.9 (90.62) days
- Total Duration of Treatment Episodes, Median (Baseline PGA = 3, Overall): 198.0 days
- Total Duration of Treatment Success, Mean (SD) (Baseline PGA = 3, Overall): 75.5 (57.18) days
- Total Duration of Treatment Success, Median (Baseline PGA = 3, Overall): 64.0 days
- Average Duration of Episodes, Mean (SD) [3]: 184.7 (96.36) days
- Average Duration of Episodes, Median [3]: 198.0 days
- Average Duration of Treatment Success, Mean (SD) [3]: 63.9 (54.43) days
- Average Duration of Treatment Success, Median [3]: 48.3 days
- Duration of 1st Episode, Mean (SD) [3]: 187.1 (95.90) days
- Duration of 1st Episode, Median [3]: 198.0 days
- Duration of 1st Success, Mean (SD) [3]: 62.6 (55.19) days
- Duration of 1st Success, Median [3]: 43.0 days
- Duration of 2nd Episode, Mean (SD) [3]: 68.2 (77.66) days
- Duration of 2nd Episode, Median [3]: 30.0 days
- Duration of 2nd Success, Mean (SD) [3]: 57.0 (NE) days
- Duration of 2nd Success, Median [3]: 57.0 days
- Duration of Last Episode, Mean (SD) [3]: 182.2 (99.93) days
- Duration of Last Episode, Median [3]: 198.0 days
- Duration of Last Success, Mean (SD) [3]: 65.2 (54.03) days
- Duration of Last Success, Median [3]: 56.0 days
- Total Duration of Treatment Episodes, Mean (SD) [3]: 190.8 (95.50) days
- Total Duration of Treatment Episodes, Median [3]: 200.0 days
